Data: patent publication US11447485B2, “Class of bifunctional compounds with quanternary ammonium salt structure” (Beijing Showby Pharmaceutical Co., Ltd., priority 2016, dated 2022)

Experiments:
[1] = Lung homogenate stability in vitro (dog); format: in vitro ADME, Beagle dog; conditions: 8 h, 37° C.
Protocol: The compounds of the invention were respectively incubated with the lung homogenate of Beagle dogs for 8 hours in a water bath at 37° C., and sample was analysed by LC-MS/MS when the reaction was terminated.

[2] = Liver microsome metabolic stability in vitro (human); conditions: Human liver microsomes
Protocol: (§1) The area ratio of the 0 min sample was taken as 100%, and the remaining percentage of the compound after incubation at different times was obtained at each time point by comparison with the sample. With the natural logarithm of this percentage on the ordinate and time on the abscissa, a scatter plot was drawn to simulate a straight line with a negative slope of k. The parameters were calculated according to the formula.
(§2) Liver weight indicates the liver weight (g) per kilogram of body weight, and P450 indicates the amount (mg) of P450 enzyme per gram of liver.

[3] = tested on: guinea pig tracheal smooth muscle (MABA); assay: MABA activity: relaxation of CCh pre-constricted guinea pig isolated trachea; conditions: Cavia porcellus; CCh 3×10^−6 mol/L
Protocol: (1) The Constriction Effect of Tracheal Smooth Muscle of Guinea Pig Induced by the Example Compounds Antagonizing Carbachol (CCh)
(§3) Preparation of an isolated tracheal smooth muscle specimen of a guinea pig: same as Experiment Example 1.
Administration Method: After the trachea flake were stabilized, carbachol with a final concentration of 3×10^−6 mol/L was added, and administration was started when the pressure value of the trachea flake was increased to a stable platform. The experiments were divided into blank group and each test sample administration group. DMSO solution prepared from K—H solution and 50 μl of each test sample solution were added to each group respectively. The test sample administration group was added with 10^−9, 0.3×10^−8, 10^−8, 0.3×10^−7, 10^−7, 0.3×10^−6 and 10^−6 mol/L of test compound and control substance at cumulative concentration. The blank group was added with corresponding diluted DMSO solution. Medlab was used to record the relaxation degree of smooth muscle of the trachea flake. Finally, isoproterenol with a final concentration of 10^−5 mol/L was added as 100% relaxation.

[4] = tested on: heart rate of Beagle dogs; assay: Heart rate changes after iv administration in Beagle dogs; format: in vivo, Beagle dog
Protocol: Beagle dogs were randomly divided into two groups, half male and half female, and were intravenously injected (iv) with 7.5% ethanol solution of compounds of the invention and control compound. Each compound was set up in two dosage groups of 0.01 mg/kg and 0.10 mg/kg.

[5] = Lung homogenate stability in vitro (human); format: in vitro ADME; conditions: 8 h, 37° C.
[6] = tested on: M receptor of guinea pig tracheal smooth muscle; assay: MA activity: guinea pig isolated trachea, propranolol blocks β receptor, CCh constriction; conditions: Cavia porcellus; propranolol 10^−5 mol/L, CCh 3×10^−6 mol/L
Protocol: (2) Blocking Effect of Example Compounds on M Receptor of Guinea Pig Tracheal Smooth Muscle
as §3
Administration method: After trachea flake was stabilized, propranolol hydrochloride solution with a final concentration of 10^−5 mol/L was added to block β receptor for 10 min, carbachol with a final concentration of 3×10^−6 mol/L was added (observing M receptor antagonism of compound after propranolol blocks β receptor), and administration was started when the pressure value of the trachea flake was increased to a stable platform. The experiments were divided into a blank group, a propranolol+blank group, each test sample administration group and a propranolol+each test sample administration group. DMSO solution prepared by K—H solution and 50 μl of test sample solution were added to each group of the blank group and each test sample administration group respectively. The propranolol+blank group and propranolol+each test sample administration group were added with 50 μl propranolol solution for 10 min respectively, and then added with DMSO solution prepared from K—H solution and 50 μl of test sample solution. The test sample administration group was added with the compounds to be tested with final concentrations of 10^−9, 0.3×10^−8, 10^−8, 0.3×10^−7, 10^−7, 0.3×10^−6 and 10^−6 mol/L at cumulative concentration, and the blank group was added with corresponding diluted DMSO solution. The propranolol+each test sample administration group was added with propranolol for 10 min, and then added with the compounds to be tested with final concentrations of 10^−9, 0.3×10^−8, 10^−8, 0.3×10^−7, 10^−7, 0.3×10^−6 and 10^−6 mol/L at cumulative concentration. After the propranolol+blank group was added with propranolol for 10 min, corresponding diluted DMSO solution was added. Medlab was used to record the relaxation degree of tracheal smooth muscle, finally sodium nitroprusside with a final concentration of […] was added as 100% relaxation.

[7] = tested on: β2 receptor in guinea pig tracheal smooth muscle; assay: BA activity: guinea pig isolated trachea pre-treated with histamine; conditions: Cavia porcellus, read-out: BA (EC50, nM)
Protocol: (3) The Antagonism of the Example Compounds on β2 Receptor in Guinea Pig Tracheal Smooth Muscle
as §3
Administration Method: After the trachea flake was stabilized, histamine solution with a final concentration of 3×10^−5 mol/L was added for 10 min, carbachol with a final concentration of 3×10^−6 mol/L was added (observing β receptor antagonism), and administration was started when the pressure value of the trachea flake was increased to a stable platform. The experiments were divided into a blank group, a histamine+blank group, each test sample administration group and a histamine+each test sample administration group. DMSO solution prepared by K—H solution and 50 μl of test sample solution were added to each group of the blank group and each test sample administration group respectively. The histamine+blank group and histamine+each test sample administration group were added with 50 μl histamine solution for 10 min respectively, then added with DMSO solution prepared by K—H solution and 50 μl test sample solution. The test sample administration group was added with the compounds to be tested with final concentrations of 10^−9, 0.3×10^−8, 10^−8, 0.3×10^−7, 10^−7, 0.3×10^−6 and 10^−6 mol/L at cumulative concentration, and the blank group was added with corresponding diluted DMSO solution. The histamine+each test sample administration group was added with histamine for 10 min, and then added with the test compounds with final concentrations of 10^−9, 0.3×10^−8, 10^−8, 0.3×10^−7, 10^−7, 0.3×10^−6 and 10^−6 mol/L at cumulative concentration. After the histamine+blank group was added with histamine for 10 m, corresponding diluted DMSO solution was added. Medlab was used to record the relaxation degree of smooth muscle of the trachea flake. Finally theophylline with a final concentration of 2×10^−4 mol/L was added as 100% relaxation.

[8] = Liver microsome metabolic stability in vitro (SD rat); conditions: SD rat liver microsomes
Protocol: as §1, §2

[9] = Liver microsome metabolic stability in vitro (Beagle dog); conditions: Beagle dog liver microsomes
Protocol: as §1, §2

With `CC(NC[C@H](O)c1ccc(O)c(NC=O)c1)c1ccc(OCCC[N+]23CCC(CC2)[C@@H](OC[C@@](O)(c2ccccc2)C2CCCC2)C3)cc1.[Br-]` (stereo partly drawn) [Compound 94] the “Residual rate after incubation of dog lung homogenate (%)” value [1] was 96%, the “liver extraction rate (ERh)” value [2] was 0.93 and the EC50 [3] was 19.8 ± 5.4 nM. The “0.5-4 h area increase under heart rate curve (%)” value (“0.5-4 h area increase … (%)” for short) ([4]; 0.01 mg/kg iv) was −2.8%, the “0.5-4 h area increase … (%)” value ([4]; 0.10 mg/kg iv) was 4.6% and the “Residual rate after incubation of human lung homogenate (%)” value [5] was 91%. The EC50 [6] was 43.5 ± 4.2 nM, the EC50 [7] was 33.5 ± 5.7 nM and the “liver extraction rate (ERh)” value [8] was 0.94. The “liver extraction rate (ERh)” value [9] was 0.94.

With `OCc1cc([C@@H](O)CNCCCCCCCCC[N+]23CCC(CC2)[C@@H](OC[C@@](O)(c2ccccc2)C2CCCC2)C3)ccc1O.[Br-]` [Compound 7] the “Residual rate after incubation of dog lung homogenate (%)” value [1] was 95%, the “liver extraction rate (ERh)” value [2] was 0.94 and the EC50 [3] was 72.3 ± 14.6 nM. For the same compound, the “0.5-4 h area increase … (%)” value ([4]; 0.01 mg/kg iv) was −0.5%, the “0.5-4 h area increase … (%)” value ([4]; 0.10 mg/kg iv) was 0% and the “Residual rate after incubation of human lung homogenate (%)” value [5] was 93%. For the same compound, the EC50 [6] was 290 ± 12.3 nM, the EC50 [7] was 162 ± 9.8 nM and the “liver extraction rate (ERh)” value [8] was 0.97. For the same compound, the “liver extraction rate (ERh)” value [9] was 0.98.

In the case of `O=c1ccc2c([C@@H](O)CNCCCOc3ccc(OCCC[N+]45CCC(CC4)[C@@H](OC[C@@](O)(c4ccccc4)C4CCCC4)C5)cc3)ccc(O)c2[nH]1.[Br-]` [Compound 131], the “Residual rate after incubation of dog lung homogenate (%)” value [1] is reported as 94%, the “liver extraction rate (ERh)” value [2] is reported as 0.99 and the EC50 [3] is reported as 4 ± 1 nM. The “0.5-4 h area increase … (%)” value ([4]; 0.01 mg/kg iv) was 10%, the “0.5-4 h area increase … (%)” value ([4]; 0.10 mg/kg iv) was 2.9% and the “Residual rate after incubation of human lung homogenate (%)” value [5] was 90%. For the same compound, the EC50 [6] was 30.2 ± 8.1 nM, the EC50 [7] was 9.2 ± 1.6 nM and the “liver extraction rate (ERh)” value [8] was 0.93. For the same compound, the “liver extraction rate (ERh)” value [9] was 0.93.

With `O=CNc1cc([C@@H](O)CNCCCOc2ccc(OCCC[N+]34CCC(CC3)[C@@H](OC[C@@](O)(c3ccccc3)C3CCCC3)C4)cc2)ccc1O` [Compound 113, (R)-(−)-3-[(R)-2-hydroxy-2-cyclopentyl-2-phenyl]ethoxy-1-{3-[4-(3-{(R)-[2-hydroxy-2-(3-formamido-4-hydroxy)phenyl]ethylamino}propoxy)phenoxy]propyl}-1-azabicyclo[2,2,2]octylonium bromide] the “Residual rate after incubation of dog lung homogenate (%)” value [1] was 93%, the “liver extraction rate (ERh)” value [2] was 0.97 and the EC50 [3] was 7.2 ± 1.4 nM. The “0.5-4 h area increase … (%)” value ([4]; 0.01 mg/kg iv) was −3.4%, the “0.5-4 h area increase … (%)” value ([4]; 0.10 mg/kg iv) was 3.3% and the “Residual rate after incubation of human lung homogenate (%)” value [5] was 93%. The EC50 [6] was 15.6 ± 2.6 nM, the EC50 [7] was 17.6 ± 1.9 nM and the “liver extraction rate (ERh)” value [8] was 0.96. For the same compound, the “liver extraction rate (ERh)” value [9] was 0.96.

In the case of `CC(Cc1ccc(OCC[N+]23CCC(CC2)[C@@H](OC[C@@](O)(c2ccccc2)C2CCCC2)C3)cc1)NC[C@H](O)c1ccc(O)c(NC=O)c1` (stereo partly drawn) [Compound 61, (R)-(−)-3-[(R)-2-hydroxy-2-cyclopentyl-2-phenyl]ethoxy]-1-{2-[4-(2-{(R)-[2-hydroxy-2-(3-formamido-4-hydroxy)phenyl]ethylamino}propyl)phenoxy]ethyl}-1-azabicyclo[2,2,2]octylonium bromide], the “Residual rate after incubation of dog lung homogenate (%)” value [1] is reported as 89%, the “liver extraction rate (ERh)” value [2] is reported as 0.98 and the EC50 [3] is reported as 5 ± 1.1 nM. The “0.5-4 h area increase … (%)” value ([4]; 0.01 mg/kg iv) was 0%, the “0.5-4 h area increase … (%)” value ([4]; 0.10 mg/kg iv) was 2.1% and the “Residual rate after incubation of human lung homogenate (%)” value [5] was 92%. For the same compound, the EC50 [6] was 20.6 ± 1.8 nM, the EC50 [7] was 12.9 ± 1.8 nM and the “liver extraction rate (ERh)” value [8] was 0.95. The “liver extraction rate (ERh)” value [9] was 0.97.

In the case of `O=c1ccc2c([C@@H](O)CNCCCCCCCCC[N+]34CCC(CC3)[C@@H](OC[C@@](O)(c3ccccc3)C3CCCC3)C4)ccc(O)c2[nH]1.[Br-]` [Compound 12], the “Residual rate after incubation of dog lung homogenate (%)” value [1] is reported as 91%, the “liver extraction rate (ERh)” value [2] is reported as 0.96 and the EC50 [3] is reported as 5.8 ± 1.4 nM. The “0.5-4 h area increase … (%)” value ([4]; 0.01 mg/kg iv) was 1.2%, the “0.5-4 h area increase … (%)” value ([4]; 0.10 mg/kg iv) was 3.6% and the “Residual rate after incubation of human lung homogenate (%)” value [5] was 98%. The EC50 [6] was 20.1 ± 2.8 nM, the EC50 [7] was 13.8 ± 2.3 nM and the “liver extraction rate (ERh)” value [8] was 0.98. For the same compound, the “liver extraction rate (ERh)” value [9] was 0.93.
